Columns and labels:
Rattus norvegicus [1] = species on record: Rattus norvegicus; assay: Tested for maximum response in depolarization of isolated rat vagus nerve measured at dose 1 uM; format: functional
[2] = molecular target: 5-hydroxytryptamine receptor 4 (Homo sapiens, UniProt Q13639); assay: Binding affinity against 5-hydroxytryptamine 4 receptor
[3] = molecular target: T1, Muscarinic acetylcholine receptor M4 (Homo sapiens, UniProt P08173); assay: Binding affinity against Muscarinic acetylcholine receptor M4
T1 sequence (P08173 whole entry): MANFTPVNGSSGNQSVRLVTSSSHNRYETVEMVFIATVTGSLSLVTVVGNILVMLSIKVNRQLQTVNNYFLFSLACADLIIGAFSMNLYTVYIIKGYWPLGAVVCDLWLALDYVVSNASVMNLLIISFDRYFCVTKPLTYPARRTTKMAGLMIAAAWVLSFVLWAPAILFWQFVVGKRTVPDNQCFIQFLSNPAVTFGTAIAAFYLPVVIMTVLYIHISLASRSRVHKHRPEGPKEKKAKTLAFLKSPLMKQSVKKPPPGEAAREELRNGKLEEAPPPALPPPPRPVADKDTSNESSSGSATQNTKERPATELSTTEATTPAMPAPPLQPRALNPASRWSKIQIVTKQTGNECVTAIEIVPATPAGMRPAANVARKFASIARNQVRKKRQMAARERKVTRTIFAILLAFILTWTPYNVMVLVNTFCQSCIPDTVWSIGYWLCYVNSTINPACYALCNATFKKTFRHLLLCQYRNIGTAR

Rattus norvegicus [4] = species on record: Rattus norvegicus; assay: Tested for maximum response in depolarization of isolated rat vagus nerve measured at dose 10 uM; format: functional

Chain of 5-hydroxytryptamine receptor 4 (Q13639 whole entry): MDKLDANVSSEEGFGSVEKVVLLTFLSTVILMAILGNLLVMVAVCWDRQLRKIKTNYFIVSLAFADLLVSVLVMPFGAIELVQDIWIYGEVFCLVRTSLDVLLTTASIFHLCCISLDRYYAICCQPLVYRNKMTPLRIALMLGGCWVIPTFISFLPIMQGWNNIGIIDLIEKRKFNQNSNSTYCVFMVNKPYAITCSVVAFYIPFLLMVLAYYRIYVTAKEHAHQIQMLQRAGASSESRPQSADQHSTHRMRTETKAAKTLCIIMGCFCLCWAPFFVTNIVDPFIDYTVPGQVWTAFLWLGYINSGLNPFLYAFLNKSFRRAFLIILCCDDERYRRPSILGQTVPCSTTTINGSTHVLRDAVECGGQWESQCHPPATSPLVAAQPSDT

| SMILES | Max response (Rattus norvegicus [1]) [uV] | Ki [2] [µM] | Ki [3] [µM] | Max response (Rattus norvegicus [4]) [uV] |
| --- | --- | --- | --- | --- |
| Cn1cc(C(=O)C(=O)N[C@H]2CN3CCC2CC3)c2ccccc21 | 140 | 0.251 | 25.1 |  |
| Cn1cc(C(=O)C(=O)N[C@@H]2CN3CCC2CC3)c2ccccc21 |  |  |  | 167 |

From ChEMBL document CHEMBL1128795, “N-(Quinuclidin-3-yl)-2-(1-methyl-1H-indol-3-yl)-2-oxo-acetamide: a high affinity 5-HT3 receptor partial agonist” (Bioorg Med Chem Lett, 1995)
